Test results taken from ChEMBL document CHEMBL1201862, “PubChem BioAssay data set” (2004).
Activity calls are given as the source filed them.

Columns and labels:
[1] = target: T1, High affinity choline transporter 1 (Homo sapiens, UniProt Q9GZV3); assay: CHT activators, dose response, cell-based, 10-point CRC, membrane potential dye (AID 602376); format: functional
T1 sequence (Q9GZV3 whole entry): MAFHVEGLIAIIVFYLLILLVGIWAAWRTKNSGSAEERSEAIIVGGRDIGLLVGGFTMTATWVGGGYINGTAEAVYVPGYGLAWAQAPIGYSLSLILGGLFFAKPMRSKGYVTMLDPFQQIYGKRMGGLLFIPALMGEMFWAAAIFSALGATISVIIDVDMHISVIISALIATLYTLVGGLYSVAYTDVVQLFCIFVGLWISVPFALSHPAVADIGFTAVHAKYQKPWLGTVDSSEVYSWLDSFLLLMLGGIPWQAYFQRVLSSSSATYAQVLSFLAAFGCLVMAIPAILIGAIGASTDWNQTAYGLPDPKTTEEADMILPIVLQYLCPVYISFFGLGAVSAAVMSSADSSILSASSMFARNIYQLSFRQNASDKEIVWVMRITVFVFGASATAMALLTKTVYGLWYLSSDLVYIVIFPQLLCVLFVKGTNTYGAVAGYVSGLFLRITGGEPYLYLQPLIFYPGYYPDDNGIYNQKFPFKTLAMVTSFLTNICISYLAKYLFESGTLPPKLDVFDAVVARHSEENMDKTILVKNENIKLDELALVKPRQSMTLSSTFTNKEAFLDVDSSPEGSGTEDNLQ

[2] = target: T2, Ubiquitin-conjugating enzyme E2 N (Homo sapiens, UniProt P61088); format: functional;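 also: Dose-response confirmation in a TR-FRET assay detecting UBC13-driven polyubiquitin chain formation, inhibition measured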
T2 sequence (P61088 whole entry): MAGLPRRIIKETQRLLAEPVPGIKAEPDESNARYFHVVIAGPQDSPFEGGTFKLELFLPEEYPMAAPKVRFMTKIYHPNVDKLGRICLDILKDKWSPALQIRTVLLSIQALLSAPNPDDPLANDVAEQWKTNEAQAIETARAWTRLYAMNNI

[3] = target: Multidrug resistance protein CDR1 (Candida albicans, UniProt P43071); assay: CaCDR1 efflux pump inhibitors in yeast, dose response, S. cerevisiae AD1-8u, singleplex, Cherry Pick1 hits (AID 588606); format: functional
[4] = target: T3, Sentrin-specific protease 8 (Homo sapiens, UniProt Q96LD8); assay: SENP8 protease inhibitors, SAR follow-up, biochemical, luminescence, set 2 (AID 588601); format: functional
T3 sequence (Q96LD8 whole entry): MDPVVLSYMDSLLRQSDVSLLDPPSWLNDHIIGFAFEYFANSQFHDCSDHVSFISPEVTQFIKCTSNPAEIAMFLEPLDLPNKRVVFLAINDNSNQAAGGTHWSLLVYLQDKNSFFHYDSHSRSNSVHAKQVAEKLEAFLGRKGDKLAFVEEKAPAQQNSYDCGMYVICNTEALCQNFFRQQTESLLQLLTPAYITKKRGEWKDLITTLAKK

Caspase-3 = target: T4, Caspase-3 (Homo sapiens, UniProt P42574); assay: caspase-3 inhibitors as off-family protease, SAR follow-up, selectivity assay for SENP protease inhibitor project, biochemical, luminescence, set 2 (AID 588599); format: functional
T4 sequence (P42574 whole entry): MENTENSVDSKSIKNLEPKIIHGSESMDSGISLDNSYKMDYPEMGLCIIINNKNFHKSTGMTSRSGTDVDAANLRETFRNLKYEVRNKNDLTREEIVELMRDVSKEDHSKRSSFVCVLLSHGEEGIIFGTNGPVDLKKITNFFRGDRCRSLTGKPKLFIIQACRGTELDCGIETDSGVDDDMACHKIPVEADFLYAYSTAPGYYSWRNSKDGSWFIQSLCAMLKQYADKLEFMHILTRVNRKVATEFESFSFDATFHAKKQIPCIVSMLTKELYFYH

[5] = target: T5, Sentrin-specific protease 6 (Homo sapiens, UniProt Q9GZR1); assay: SENP6 protease inhibitors, SAR follow-up, biochemical, luminescence, set 2 (AID 588598); format: functional
T5 sequence (Q9GZR1 whole entry): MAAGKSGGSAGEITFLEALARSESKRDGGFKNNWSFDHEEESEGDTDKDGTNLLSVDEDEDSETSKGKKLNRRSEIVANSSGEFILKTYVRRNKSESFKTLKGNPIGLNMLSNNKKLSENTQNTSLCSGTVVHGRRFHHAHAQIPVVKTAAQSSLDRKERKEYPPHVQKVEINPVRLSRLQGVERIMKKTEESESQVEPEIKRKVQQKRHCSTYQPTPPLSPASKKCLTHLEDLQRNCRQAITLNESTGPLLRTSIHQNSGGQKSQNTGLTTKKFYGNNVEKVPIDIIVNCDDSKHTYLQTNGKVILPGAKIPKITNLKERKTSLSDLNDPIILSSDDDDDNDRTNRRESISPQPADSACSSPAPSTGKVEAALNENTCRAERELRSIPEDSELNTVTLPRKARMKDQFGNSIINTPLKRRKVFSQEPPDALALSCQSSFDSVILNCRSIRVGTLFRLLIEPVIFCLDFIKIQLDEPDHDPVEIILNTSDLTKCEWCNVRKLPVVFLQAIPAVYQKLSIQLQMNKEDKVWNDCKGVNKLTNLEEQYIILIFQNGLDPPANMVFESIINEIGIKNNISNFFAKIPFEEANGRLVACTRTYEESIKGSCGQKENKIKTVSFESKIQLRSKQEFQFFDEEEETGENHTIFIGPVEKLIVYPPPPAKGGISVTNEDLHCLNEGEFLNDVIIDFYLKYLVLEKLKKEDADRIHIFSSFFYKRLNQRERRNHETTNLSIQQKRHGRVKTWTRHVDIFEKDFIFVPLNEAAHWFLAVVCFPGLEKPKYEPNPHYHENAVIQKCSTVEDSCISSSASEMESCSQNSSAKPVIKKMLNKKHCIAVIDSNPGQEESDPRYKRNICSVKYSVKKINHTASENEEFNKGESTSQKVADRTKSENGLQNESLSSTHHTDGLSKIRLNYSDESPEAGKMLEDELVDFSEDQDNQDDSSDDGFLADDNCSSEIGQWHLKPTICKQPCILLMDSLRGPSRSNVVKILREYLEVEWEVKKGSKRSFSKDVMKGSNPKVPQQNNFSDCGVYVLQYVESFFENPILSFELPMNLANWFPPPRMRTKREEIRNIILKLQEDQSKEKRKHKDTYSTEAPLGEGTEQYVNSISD

[6] = target: T6, Sentrin-specific protease 7 (Homo sapiens, UniProt Q9BQF6); assay: SENP7 protease inhibitors, SAR follow-up, biochemical, luminescence, set 2 (AID 588600); format: functional
T6 sequence (Q9BQF6 whole entry): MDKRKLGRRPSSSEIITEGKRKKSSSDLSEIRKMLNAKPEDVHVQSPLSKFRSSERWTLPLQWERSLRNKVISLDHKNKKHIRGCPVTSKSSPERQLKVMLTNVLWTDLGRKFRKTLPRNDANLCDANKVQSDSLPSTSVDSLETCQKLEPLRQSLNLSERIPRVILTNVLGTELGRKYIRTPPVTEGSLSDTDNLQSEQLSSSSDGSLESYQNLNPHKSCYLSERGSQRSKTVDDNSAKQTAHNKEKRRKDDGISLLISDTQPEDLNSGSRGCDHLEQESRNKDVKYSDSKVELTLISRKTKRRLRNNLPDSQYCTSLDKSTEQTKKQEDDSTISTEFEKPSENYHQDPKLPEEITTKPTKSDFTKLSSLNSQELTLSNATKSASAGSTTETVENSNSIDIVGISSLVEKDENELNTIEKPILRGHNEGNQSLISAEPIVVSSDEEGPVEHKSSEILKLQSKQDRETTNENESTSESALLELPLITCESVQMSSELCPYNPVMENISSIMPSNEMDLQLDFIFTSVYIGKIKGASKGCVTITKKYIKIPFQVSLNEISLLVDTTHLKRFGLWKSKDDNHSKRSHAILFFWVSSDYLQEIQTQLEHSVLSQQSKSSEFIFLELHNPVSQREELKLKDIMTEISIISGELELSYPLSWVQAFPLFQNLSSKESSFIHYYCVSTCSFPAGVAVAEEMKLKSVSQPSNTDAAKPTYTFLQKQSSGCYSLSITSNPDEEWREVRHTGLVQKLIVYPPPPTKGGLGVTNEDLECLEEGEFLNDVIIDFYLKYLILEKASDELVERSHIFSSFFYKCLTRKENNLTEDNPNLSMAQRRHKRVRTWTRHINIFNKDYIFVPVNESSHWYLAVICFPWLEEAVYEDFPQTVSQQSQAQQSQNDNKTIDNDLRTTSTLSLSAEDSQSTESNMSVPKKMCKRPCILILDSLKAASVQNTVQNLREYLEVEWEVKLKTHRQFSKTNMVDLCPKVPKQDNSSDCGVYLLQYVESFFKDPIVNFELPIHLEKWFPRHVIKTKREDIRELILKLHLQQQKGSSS

Prothrombin = Prothrombin (Bos taurus, UniProt P00735); assay: thrombin inhibition, dose response, biochemical, fluorescence polarization, uHTS hits (AID 602369); format: functional
[7] = target: 26S proteasome non-ATPase regulatory subunit 14 (Homo sapiens, UniProt O00487); assay: inhibition of proteasome subunit RPN11 – biochemical, fluorescence polarization, uHTS hits, confirmation (AID 602368); format: functional
[8] = target: 72 kDa type IV collagenase (Homo sapiens, UniProt P08253); assay: Dose Response validation of uHTS RPN11 inhibitor hits using a MMP-2 Fluorescence assay.; format: functional
[9] = cytotoxicity in HPDE-C7 cells, cell-based, fluorescence, HTS (AID 430); format: functional; settings: Homo sapiens
[10] = cytotoxicity toward HT-29 cells – cell-based, CellTiter-Glo luminescence, IC50, dose response (AID 1117330); format: functional
[11] = RKO cell viability reduction, dose response, CellTiter-Glo luminescence (AID 1117322); format: functional
[12] = cytotoxicity toward HCT116 cells – cell-based, CellTiter-Glo luminescence, IC50, dose response (AID 1117332); format: functional; settings: HCT-116
Paired box protein Pax-8 = Paired box protein Pax-8 (Homo sapiens, UniProt Q06710); assay: inhibitors of PAX8-driven TPO luciferase reporter, dose response, RMG-I cells, cherry-pick (AID 687027); format: functional, cell-based;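 also: luciferase reporter driven by Pax8 target thyroperoxidase promoter measured by SteadyGlo luminescence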
HSP90 = HSP90 (Plasmodium falciparum 3D7, UniProt Q8IL32); format: functional, organism-based
[13] = target: Heat shock protein HSP 90-alpha (Homo sapiens, UniProt P07900); format: functional, organism-based
[14] = HeLa 4N DNA content increase, dose response, cell-based, IC50 (AID 1117351); format: functional
[15] = HeLa 2N DNA content increase, dose response, cell-based, IC50 (AID 1117349); format: functional
[16] = SNU-C1 cell viability reduction, dose response, CellTiter-Glo luminescence (AID 1117323); format: functional, cell-based
[17] = Concentration-dependent survival of SW480 colon cancer line, luminescence detection with CellTiter-Glo, half-maximal inhibitory concentration (AID 1117338); format: functional
[18] = CellTiter-Glo luminescent dose response of DLD-1 viability loss (AID 1117352); format: functional
[19] = cytotoxicity toward Colo320 cells – cell-based, CellTiter-Glo luminescence, IC50, dose response (AID 1117334); format: functional; settings: COLO 320
[20] = cytotoxicity in KRAS-transformed pancreatic duct cells, primary screen, cell-based, fluorescence, HTS (AID 431); format: functional; settings: Homo sapiens;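 also: cell line used: HPDE-C7K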
[21] = inhibitors of cytokine-induced nitrite release, dose response, cell-based, Griess absorbance, INS-1E, dry powder, set 3 (AID 488870); format: functional; settings: Rattus norvegicus
INS1 [22] = assay: protection of INS-1E cells from cytokine death, dose response, ATP luminescence, dry powder (AID 488844); format: functional, cell-based; settings: Rattus norvegicus
INS1 [23] = assay: protection from cytokine-induced mitochondrial depolarization, dose response, cell-based, INS-1E, JC-1 fluorescence ratio, dry powder (AID 488931); format: functional; settings: Rattus norvegicus
INS1 [24] = assay: inhibitors of cytokine-induced nitrite release, dose response, cell-based, Griess absorbance, INS-1E, dry powder, set 2 (AID 488868); format: functional; settings: Rattus norvegicus

Chain of HSP90 (Q8IL32 whole entry): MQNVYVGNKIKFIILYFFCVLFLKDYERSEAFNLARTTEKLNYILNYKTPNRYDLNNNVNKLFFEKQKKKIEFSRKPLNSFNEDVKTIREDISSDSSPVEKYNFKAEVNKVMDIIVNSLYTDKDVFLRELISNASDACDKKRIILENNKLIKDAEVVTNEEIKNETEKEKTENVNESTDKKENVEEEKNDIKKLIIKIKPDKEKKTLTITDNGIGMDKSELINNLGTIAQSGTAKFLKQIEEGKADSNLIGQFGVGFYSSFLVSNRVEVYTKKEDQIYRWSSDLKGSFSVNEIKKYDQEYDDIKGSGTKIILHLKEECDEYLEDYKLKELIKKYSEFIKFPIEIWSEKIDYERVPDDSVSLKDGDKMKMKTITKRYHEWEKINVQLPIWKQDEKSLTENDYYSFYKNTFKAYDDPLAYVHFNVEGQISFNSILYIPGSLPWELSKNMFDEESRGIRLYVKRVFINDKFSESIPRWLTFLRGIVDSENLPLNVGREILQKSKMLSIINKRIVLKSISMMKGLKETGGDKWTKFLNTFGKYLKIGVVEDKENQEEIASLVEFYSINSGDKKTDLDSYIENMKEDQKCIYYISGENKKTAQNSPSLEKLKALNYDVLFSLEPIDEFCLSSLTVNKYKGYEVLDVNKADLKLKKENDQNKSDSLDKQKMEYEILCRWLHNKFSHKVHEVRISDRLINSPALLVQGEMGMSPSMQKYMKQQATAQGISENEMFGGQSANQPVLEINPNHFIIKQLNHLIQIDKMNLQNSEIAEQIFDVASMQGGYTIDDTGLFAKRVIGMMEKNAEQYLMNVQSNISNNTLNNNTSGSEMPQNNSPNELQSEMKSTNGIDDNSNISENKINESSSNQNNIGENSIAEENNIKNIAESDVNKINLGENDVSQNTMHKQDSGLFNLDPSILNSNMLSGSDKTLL
Chain of Multidrug resistance protein CDR1 (P43071 whole entry, looked up): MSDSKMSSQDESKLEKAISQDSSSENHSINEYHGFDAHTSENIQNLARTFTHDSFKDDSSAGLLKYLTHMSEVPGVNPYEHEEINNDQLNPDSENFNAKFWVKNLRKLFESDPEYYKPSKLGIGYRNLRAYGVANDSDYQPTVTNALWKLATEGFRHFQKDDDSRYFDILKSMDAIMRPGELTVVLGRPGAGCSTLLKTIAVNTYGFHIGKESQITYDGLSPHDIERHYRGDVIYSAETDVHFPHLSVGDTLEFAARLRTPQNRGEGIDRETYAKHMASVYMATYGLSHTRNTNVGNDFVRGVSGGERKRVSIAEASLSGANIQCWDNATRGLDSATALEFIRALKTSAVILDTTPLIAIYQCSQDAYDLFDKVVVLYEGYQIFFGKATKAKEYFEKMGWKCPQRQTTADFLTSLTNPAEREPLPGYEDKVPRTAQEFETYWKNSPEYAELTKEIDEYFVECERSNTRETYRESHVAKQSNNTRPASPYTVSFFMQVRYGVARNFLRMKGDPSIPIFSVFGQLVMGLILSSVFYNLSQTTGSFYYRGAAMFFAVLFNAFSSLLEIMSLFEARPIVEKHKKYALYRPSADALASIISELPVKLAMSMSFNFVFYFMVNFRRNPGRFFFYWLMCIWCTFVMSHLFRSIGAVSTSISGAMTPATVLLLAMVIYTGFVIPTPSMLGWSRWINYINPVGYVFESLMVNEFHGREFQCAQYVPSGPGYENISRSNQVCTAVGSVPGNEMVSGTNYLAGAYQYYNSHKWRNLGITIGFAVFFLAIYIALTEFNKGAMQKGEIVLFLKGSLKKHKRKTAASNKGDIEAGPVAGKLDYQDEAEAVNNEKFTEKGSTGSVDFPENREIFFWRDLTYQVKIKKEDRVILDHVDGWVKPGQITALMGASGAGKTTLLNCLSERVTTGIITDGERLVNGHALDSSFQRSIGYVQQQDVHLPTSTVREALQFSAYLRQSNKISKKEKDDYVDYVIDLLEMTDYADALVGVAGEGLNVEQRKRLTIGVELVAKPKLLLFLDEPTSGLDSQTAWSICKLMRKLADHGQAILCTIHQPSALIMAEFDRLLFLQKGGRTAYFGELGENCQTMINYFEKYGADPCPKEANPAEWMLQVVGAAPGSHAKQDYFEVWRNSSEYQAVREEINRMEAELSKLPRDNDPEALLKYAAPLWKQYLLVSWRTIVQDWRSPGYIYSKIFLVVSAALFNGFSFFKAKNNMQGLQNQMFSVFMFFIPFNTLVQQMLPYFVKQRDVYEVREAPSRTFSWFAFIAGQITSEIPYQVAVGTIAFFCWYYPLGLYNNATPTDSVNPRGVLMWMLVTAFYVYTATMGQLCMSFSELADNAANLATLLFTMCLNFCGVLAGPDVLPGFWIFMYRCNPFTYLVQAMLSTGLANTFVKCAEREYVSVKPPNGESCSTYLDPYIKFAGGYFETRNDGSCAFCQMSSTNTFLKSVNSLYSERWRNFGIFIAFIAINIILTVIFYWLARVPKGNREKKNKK
Chain of Paired box protein Pax-8 (Q06710 whole entry): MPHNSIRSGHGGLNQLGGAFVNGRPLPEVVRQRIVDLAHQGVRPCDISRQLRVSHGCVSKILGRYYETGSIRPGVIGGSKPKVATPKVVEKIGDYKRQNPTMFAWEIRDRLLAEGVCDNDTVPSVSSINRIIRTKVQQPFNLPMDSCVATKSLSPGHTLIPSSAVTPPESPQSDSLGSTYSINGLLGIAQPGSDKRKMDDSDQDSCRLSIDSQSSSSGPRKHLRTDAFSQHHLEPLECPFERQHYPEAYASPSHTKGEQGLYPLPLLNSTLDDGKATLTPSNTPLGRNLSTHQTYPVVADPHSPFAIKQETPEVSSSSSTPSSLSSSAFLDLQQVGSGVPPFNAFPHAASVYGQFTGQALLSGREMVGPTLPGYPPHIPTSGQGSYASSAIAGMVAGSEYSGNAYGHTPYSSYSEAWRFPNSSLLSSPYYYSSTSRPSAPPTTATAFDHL
Chain of 26S proteasome non-ATPase regulatory subunit 14 (O00487 whole entry): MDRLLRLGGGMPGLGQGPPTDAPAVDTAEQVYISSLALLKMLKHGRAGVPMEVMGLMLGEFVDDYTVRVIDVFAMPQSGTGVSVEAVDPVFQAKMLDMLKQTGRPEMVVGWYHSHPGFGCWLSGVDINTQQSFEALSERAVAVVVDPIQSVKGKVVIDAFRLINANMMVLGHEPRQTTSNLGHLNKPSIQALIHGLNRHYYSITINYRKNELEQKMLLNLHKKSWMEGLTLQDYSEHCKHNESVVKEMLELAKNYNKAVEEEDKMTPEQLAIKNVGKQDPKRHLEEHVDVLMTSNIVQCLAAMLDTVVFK
Chain of 72 kDa type IV collagenase (P08253 whole entry): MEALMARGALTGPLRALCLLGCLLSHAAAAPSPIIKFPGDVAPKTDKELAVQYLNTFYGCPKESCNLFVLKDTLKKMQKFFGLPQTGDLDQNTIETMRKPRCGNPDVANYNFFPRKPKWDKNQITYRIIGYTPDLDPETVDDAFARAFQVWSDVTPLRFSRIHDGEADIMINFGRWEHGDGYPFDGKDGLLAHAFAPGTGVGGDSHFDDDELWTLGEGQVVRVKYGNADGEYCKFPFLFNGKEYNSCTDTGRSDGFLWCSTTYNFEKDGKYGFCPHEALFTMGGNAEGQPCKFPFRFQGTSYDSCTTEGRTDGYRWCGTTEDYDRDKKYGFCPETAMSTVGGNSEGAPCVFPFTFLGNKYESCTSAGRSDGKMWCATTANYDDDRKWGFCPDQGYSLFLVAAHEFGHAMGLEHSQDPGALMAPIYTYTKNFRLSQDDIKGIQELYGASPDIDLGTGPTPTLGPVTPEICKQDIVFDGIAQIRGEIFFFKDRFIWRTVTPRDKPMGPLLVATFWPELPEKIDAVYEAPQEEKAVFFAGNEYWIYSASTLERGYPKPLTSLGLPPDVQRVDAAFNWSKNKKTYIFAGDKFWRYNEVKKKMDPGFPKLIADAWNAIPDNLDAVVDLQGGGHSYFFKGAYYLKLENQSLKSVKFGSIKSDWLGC

Question: With `O=C(CCC1CCCCC1)NCCN1C2=NC[C@H](Cc3ccccc3)N2C[C@H]1Cc1ccc(O)cc1` as the compound, how does the EC50 [1] read?
Answer: 13.4 µM (active)

Question: What about the IC50 [2] of the same compound?
Answer: > 20 µM (inactive)

Question: Which EC50 [3] does the source give for `Cc1ccc(OCc2cc(C(=O)NCC(C)(C)N3CCOCC3)no2)cc1C` here?
Answer: 0.001 µM (active)

Question: Which IC50 [4] does the source give for `Cc1[nH]c2ccccc2c1C(=O)C(=O)N1CCC2(CC1)OCCO2` here?
Answer: > 99 µM (inactive)

Question: And the IC50 (Caspase-3)?
Answer: > 99 µM (inactive)

Question: And the IC50 [5]?
Answer: > 99 µM (inactive)

Question: What about the IC50 [6] of the same compound?
Answer: > 99 µM (inactive)

Question: What does the source list for `CCc1c(O)n(C2CCCCC2)c(SCC(=O)Nc2ccc(C)cc2)nc1=O`?
Answer: IC50 (Prothrombin): 45.4 µM (active); IC50 [7]: 38.3 µM (active); IC50 [8]: 20.6 µM (active)

Question: With `Oc1c(I)cc(I)c2cccnc12` [IODOQUINOL] as the compound, how does the EC50 [9] read?
Answer: 17.1 µM (active)

Question: And the IC50 [10]?
Answer: 0.705 µM (active)

Question: What about the IC50 [11] of the same compound?
Answer: 0.0227 µM (active)

Question: And the IC50 [12]?
Answer: 0.041 µM (active)

Question: And the AC50 (Paired box protein Pax-8)?
Answer: 4.87 µM (active)

Question: What about the AC50 (HSP90) of the same compound?
Answer: 0.314 µM (active)

Question: And the AC50 [13]?
Answer: 0.391 µM (active)

Question: And the IC50 [14]?
Answer: > 10 µM (inactive)

Question: What about the IC50 [15] of the same compound?
Answer: > 10 µM (inactive)

Question: And the IC50 [16]?
Answer: 0.0387 µM (active)

Question: What about the IC50 [17] of the same compound?
Answer: 0.0036 µM (active)

Question: What about the IC50 [18] of the same compound?
Answer: 0.0178 µM (active)

Question: What about the IC50 [19] of the same compound?
Answer: 0.0213 µM (active)

Question: What about the EC50 [20] of the same compound?
Answer: 7.36 µM (active)

Question: Which results are given for `C[C@@H]1CN([C@@H](C)CO)C(=O)c2cccc(NC(=O)Nc3cccc(Cl)c3Cl)c2O[C@H]1CN(C)S(=O)(=O)c1ccc2c(c1)OCCO2`?
Answer: AC50 [21]: 68.8 µM (active); AC50 (INS1 [22]): 15.2 µM (active); AC50 (INS1 [23]): 71.3 µM (active); AC50 (INS1 [24]): 29.3 µM (active)
